In patent publication EP4748837A1, “AROMATIC AMIDE DERIVATIVE, AND PREPARATION METHOD THEREFOR AND USE THEREOF” (Zhejiang Hisun Pharmaceutical Co., Ltd., priority 2023, dated 2025):

Experiments:
[1] = system: OVCAR-3 human ovarian adenocarcinoma tumor mass; assay: Pharmacodynamic testing in subcutaneous OVCAR-3 xenograft model; type: in vivo, BALB/c nude mice; details: for inhibitory effect on tumor growth (in words): 8 mg/kg, compared with the solvent control group and AMG650; for TGI% / Relative tumor volume (x±S) / Tumor volume (x±S): 35 days after administration, 8 mg/kg po QD, BALB/c nude mice; for Relative tumor volume (x±S) / Tumor volume (x±S): mean value ± standard error; for Tumor volume (x±S): in mm³ (unit assumed)
Description: Anti-tumor effects and Safeties of the Compounds 47 and 53 of the present invention in a BALB/c nude mouse animal model subjected to subcutaneous xenotransplantation of OVCAR-3 human ovarian adenocarcinoma tumor mass were evaluated.
BALB/c; nude mice, female, 6-7 weeks old, purchased from Jiangsu Gempharmatech Biotechnology Co., Ltd.
Mice in a solvent control group were given DMA: CrEL: 5%GS=10: 10: 80 (v: v: v). AMG650: a proper amount of AMG-650 was weigned, proper amounts of DMA, CrEL and 5% GS were added in sequence, and the mixture was well mixed by ultrasonic vortex to prepare 0.8 mg/mL drug preparations respectively, wherein DMA: CrEL : 5% GS=10: 10: 80 (v: v: v).
Compound 47: a proper amount of Compound 47 was added with proper amounts of DMA, CrEL and 5% GS in sequence, and evenly mixed by ultrasonic vortex to prepare 0.8 mg/mL drug preparations respectively, wherein DMA, CrEL and 5% GS=10: 10: 80 (v: v: v).
Compound 53: a proper amount of Compound 53 was weighed, proper amounts of DMA, CrEL and 5% GS were added in sequence, and the mixture was well mixed by ultrasonic vortex to prepare 0.8 mg/mL drug preparations respectively, wherein DMA: CrEL : 5% GS=10: 10: 80 (v: v: v).
An appropriate OVCAR-3 tumor-bearing animal was selected, and a 1 mm×1 mm×1 mm OVCAR-3 tumor mass was acquired aseptically and placed into normal saline for later use, which was used for subcutaneous tumor inoculation in a right side of back of the BALB/c nude mice.
About 1 mm×1 mm×1 mm OVCAR-3 tumor mass was subcutaneously inoculated in the right side of back of the female BALB/c nude mice. When an average tumor volume reached about 100-250 mm^3, the mice were randomly grouped based on tumor size, with 6 mice in each group.
Animals in each group were given the test compound once per day according to an animal weight at a fixed time every day by oral administration (po), the animals started to be administered with the test compound for the first time on the day of grouping for 35 consecutive days, and the animal weight was recorded every day.
The 1st group (G1) was a solvent control group; and
The 2nd-4th groups […] were orally administered with AMG-650, Compound 47 and Compound 53 at an administration dosage of 8 mg/kg once per day (QD).

[2] = Pharmacokinetic testing in mice after intragastric administration; type: in vivo; details: ICR mice; for area under the curve (in words) / pharmacokinetic properties (in words) / plasma concentration (in words): oral 10 mg/kg, conclusion; for AUC(0-inf) / half-life / Cmax: male, mouse, oral administration 10 mg/kg, plasma; for AUC(0-inf): read-out: Area under the curve AUC0-∞; for half-life: read-out: Half-life period T1/2 (converted); for Cmax: read-out: Plasma concentration Cmax
Description: ICR mice were taken as test animals, and intragastrically administered with a control compound AMG650 and compounds 47 and 53 of the present invention, and then drug concentrations in plasma at different moments were determined by an LC/MS/MS method, so as to study pharmacokinetic characteristics of the compounds of the present invention in the mice.
Control compound AMG650, and Compounds 47 and 53.
ICR mice, male, 20-22 g, purchased from Vital River Laboratory Animal Technology Co., Ltd.
A proper amount of to-be-tested compound was weighed, proper amounts of DMA, 30% HS-15 and Saline were added in sequence, and the mixture was well mixed by ultrasonic vortex to prepare 1 mg/mL drug preparations respectively, wherein […]: 30% HS-15: Saline=5: 5: 90 (v: v: v).
ICR mice in each to-be-tested compound injection group (9 mice in each group) were fasted overnight and then intragastrically administered with the compound (PO, an administration dosage of the compound was 10 mg/kg and an administration volume of the compound was 10 mL/kg), and were fed 4 hours after administration.
0.25 hours, 0.5 hours, 1 hour, 2 hours, 4 hours, 6 hours, 8 hours and 24 hours before and after administration, about […] of blood was collected through an orbit, and a complete blood sample was placed in an EDTA-K2-containing anticoagulation tube. The collected blood samples were placed on ice, and plasma was centrifugally separated (centrifugation conditions: 1500 g, 10 minutes). The collected plasma was stored at -40°C - -20°C before analysis.
A content of the to-be-tested compound in the plasma of the mice after intragastric administration was determined by LC-MS/MS.

HT-29 cells = assay: Inhibition of HT-29 cell proliferation (CellTiter-Glo cell viability); type: cell-based; details: Homo sapiens; HT-29 cells (TP53 R273H mutation), 120 hours culture with compound; read-out: IC50
In short: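 HT-29 cells (TP53 R273H) in McCOY's 5A with 10% FBS, seeded 1000 cells/well overnight, then exposed to compound at 1000 nM–0.015 nM final for 120 hours at 37°C. Viability by CellTiter-Glo luminescence versus 0.3% DMSO control; IC50 by nonlinear regression of log concentration–inhibition.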

SMILES	inhibitory effect on tumor growth (in words) [1]	TGI% [1]	Relative tumor volume (x±S) [1]	Tumor volume (x±S) [1]	area under the curve (in words) [2]	pharmacokinetic properties (in words) [2]	plasma concentration (in words) [2]	AUC(0-inf) [2]	half-life [2]	Cmax [2]	IC50 (HT-29 cells)
CCS(=O)(=O)Nc1ccc(C(=O)Nc2ccc(-c3ncn(C)n3)c(OCC(F)(F)F)c2)c(N2CCC3(CC2)CC3)c1 [Example 47, 4-(ethylsulfonamido)-N-(4-(1-methyl-1H-1,2,4-triazol-3-yl)-3-(2,2,2-trifluoroethoxy)pheny 1)-2-(6-azaspiro[2.5]octan-6-yl)benzamide]	more significant inhibitory effect on tumor growth	95.5%	0.22±0.11	40±20	large area under the curve	good pharmacokinetic properties	high plasma concentration	44100 ng·h/mL	5.45 h	3500 ng/mL	0.54 nM
CCS(=O)(=O)Nc1ccc(C(=O)Nc2ccc(-c3ncccn3)c(OCC(F)(F)F)c2)c(N2CCC3(CC2)CC3)c1 [Example 53, 4-(ethylsulfonamido)-N-(4-(pyrimidin-2-yl)-3-(2,2,2-trifluoroethoxy)phenyl)-2-(6-azaspiro[2.5]octan-6-yl)benzamide]	more significant inhibitory effect on tumor growth	98.0%	0.10±0.04	21±9	large area under the curve	good pharmacokinetic properties	high plasma concentration	83700 ng·h/mL	12.1 h	5790 ng/mL	6.8 nM
